Source: ChEMBL document CHEMBL1123209, “Dipole moment in relation to H2 receptor histamine antagonist activity for cimetidine analogues” (J Med Chem, 1986)

Experiments:
[1] = Partition coefficient (logD) (octanol/borax buffer); assay type: physicochemical
[2] = target: Histamine H2 receptor (Cavia porcellus) (UniProt P47747); assay: Histamine H2 receptor blocking activity was determined in the isolated guinea pig right atrium against histamine stimulated tachycardia; assay type: tissue-based; details: Cardiac atrium
Sequence of Histamine H2 receptor (Cavia porcellus) (P47747 whole entry): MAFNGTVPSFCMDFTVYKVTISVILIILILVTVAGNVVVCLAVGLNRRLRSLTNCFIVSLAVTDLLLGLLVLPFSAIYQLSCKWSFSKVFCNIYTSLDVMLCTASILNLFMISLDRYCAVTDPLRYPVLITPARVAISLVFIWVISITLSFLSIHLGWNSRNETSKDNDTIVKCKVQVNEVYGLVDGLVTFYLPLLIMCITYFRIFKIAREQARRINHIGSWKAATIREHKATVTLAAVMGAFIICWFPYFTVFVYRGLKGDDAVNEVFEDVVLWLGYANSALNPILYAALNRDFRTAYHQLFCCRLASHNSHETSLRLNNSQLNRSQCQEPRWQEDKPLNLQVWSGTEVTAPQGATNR

`C/N=c1\c(O)c(O)\c1=N\CCSCc1[nH]cnc1C` gave a logD [1] of -0.08 and a -Log KB [2] of 4.23.
Work on `Cc1[nH]cnc1CSCCNC1=NCCS(=O)(=O)N1` yielded a logD [1] of -0.74 and a -Log KB [2] of 4.57.
`Cc1[nH]cnc1CSCCNc1[nH]ccc1[N+](=O)[O-]` showed a logD [1] of 1.04 and a -Log KB [2] of 7.31.
In the case of `CNC(=S)NCCSCc1[nH]cnc1C`, the -Log KB [2] is reported as 6.04.
For `Cc1[nH]cnc1CSCCNC1=NC(=O)CN1`, the logD [1] was -0.5 and the -Log KB [2] was 4.21.
With `Cc1[nH]cnc1CSCCNC1=C([N+](=O)[O-])CCN1` the logD [1] was -0.87 and the -Log KB [2] was 6.31.
`Cc1[nH]cnc1CSCCNc1cc(O)ccn1` showed a logD [1] of 0.8 and a -Log KB [2] of 4.8.
For `CNC(=N[N+](=O)[O-])NCCSCc1nc[nH]c1C`, the logD [1] was 0.13.
For `CN/C(=C/[N+](=O)[O-])NCCSCc1[nH]cnc1C`, the logD [1] was -0.4 and the -Log KB [2] was 5.85.
With `Cc1[nH]cnc1CSCCNc1ccnc(O)n1` the logD [1] was -0.4 and the -Log KB [2] was < 4.5.
Compound `C/N=C(\S)NCCSCc1[nH]cnc1C` [METIAMIDE] has a logD [1] of 0.55.
Compound `C/N=C(/NCCSCc1[nH]cnc1C)N[N+](=O)[O-]` has a -Log KB [2] of 5.84.
For `Cc1[nH]cnc1CSCCNc1nccc(O)c1[N+](=O)[O-]`, the logD [1] was -0.2 and the -Log KB [2] was 6.44.
Compound `CNC(=O)NCCSCc1[nH]cnc1C` has a logD [1] of -0.06 and a -Log KB [2] of 4.69.
With `Cc1[nH]cnc1CSCCNc1cccc(O)n1` the logD [1] was 0.79 and the -Log KB [2] was < 4.
In the case of `Cc1[nH]cnc1CSCCNc1nccc(O)n1`, the logD [1] is reported as 0.02 and the -Log KB [2] is reported as 5.13.
